Laboratory results from PubChem BioAssay (NCI).
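How tested: cells in 96-well plates exposed to compound for 48 hours at five concentrations. GI50 = concentration required for 50% inhibition of growth. TGI denotes the concentration required for complete inhibition of growth.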

Assays:
Experiment in all cases: inhibition of tumour cell growth, NCI panel, 48 h
HOP-62 NSCLC = tested on: HOP-62 NSCLC
NCI-H460 lung = tested on: NCI-H460 lung
MDA-MB-231 breast = tested on: MDA-MB-231 breast
M14 melanoma = tested on: M14 melanoma
NCI/ADR-RES ovarian = tested on: NCI/ADR-RES ovarian
BT-549 breast = tested on: BT-549 breast
SR leukemia = tested on: SR leukemia
HCC-2998 colon = tested on: HCC-2998 colon
SK-OV-3 ovarian = tested on: SK-OV-3 ovarian
OVCAR-5 ovarian = tested on: OVCAR-5 ovarian
SF-539 CNS = tested on: SF-539 CNS
EKVX NSCLC = tested on: EKVX NSCLC
TK-10 renal = tested on: TK-10 renal
PC-3 prostate = tested on: PC-3 prostate
SNB-19 CNS = tested on: SNB-19 CNS
SN12C renal = tested on: SN12C renal
SNB-75 CNS = tested on: SNB-75 CNS
CCRF-CEM leukemia = tested on: CCRF-CEM leukemia
MDA-N = tested on: MDA-N
UO-31 renal = tested on: UO-31 renal
MALME-3M melanoma = tested on: MALME-3M melanoma
SK-MEL-2 melanoma = tested on: SK-MEL-2 melanoma
NCI-H23 lung = tested on: NCI-H23 lung
HL-60(TB) leukemia = tested on: HL-60(TB) leukemia
MCF7 breast = tested on: MCF7 breast
OVCAR-8 ovarian = tested on: OVCAR-8 ovarian
T-47D breast = tested on: T-47D breast
SF-295 CNS = tested on: SF-295 CNS
786-0 renal = tested on: 786-0 renal
HOP-92 NSCLC = tested on: HOP-92 NSCLC
SK-MEL-28 melanoma = tested on: SK-MEL-28 melanoma
K-562 leukemia = tested on: K-562 leukemia
ACHN renal = tested on: ACHN renal
NCI-H226 lung = tested on: NCI-H226 lung
COLO 205 colon = tested on: COLO 205 colon
SW-620 colon = tested on: SW-620 colon
NCI-H522 lung = tested on: NCI-H522 lung
HCT-15 colon = tested on: HCT-15 colon
RXF 393 renal = tested on: RXF 393 renal
KM12 colon = tested on: KM12 colon
HCT-116 colon = tested on: HCT-116 colon
OVCAR-3 ovarian = tested on: OVCAR-3 ovarian
HT29 colon = tested on: HT29 colon
SF-268 CNS = tested on: SF-268 CNS
IGROV1 ovarian = tested on: IGROV1 ovarian
UACC-257 melanoma = tested on: UACC-257 melanoma
OVCAR-4 ovarian = tested on: OVCAR-4 ovarian
HS 578T breast = tested on: HS 578T breast
A498 renal = tested on: A498 renal
CAKI-1 renal = tested on: CAKI-1 renal
SK-MEL-5 melanoma = tested on: SK-MEL-5 melanoma
MOLT-4 leukemia = tested on: MOLT-4 leukemia
A549 NSCLC = tested on: A549 NSCLC
MDA-MB-435 = tested on: MDA-MB-435
DU-145 prostate = tested on: DU-145 prostate
UACC-62 melanoma = tested on: UACC-62 melanoma
U251 CNS = tested on: U251 CNS
LOX IMVI melanoma = tested on: LOX IMVI melanoma
RPMI-8226 leukemia = tested on: RPMI-8226 leukemia

## C[C@H]1CCC/C=C/[C@@H]2C[C@H](O)C[C@H]2[C@H](O)[C@@H](SCC(O)CO)CC(=O)O1 (some centres not stated)
HOP-62 NSCLC
  GI50: 33.2 µM
  TGI: > 100 µM
NCI-H460 lung
  GI50: 26.3 µM
  TGI: > 100 µM
MDA-MB-231 breast
  GI50: 12.1 µM
  TGI: 28.1 µM
M14 melanoma
  GI50: 12.4 µM
  TGI: > 100 µM
NCI/ADR-RES ovarian
  GI50: > 100 µM
  TGI: > 100 µM
BT-549 breast
  GI50: 69.2 µM
  TGI: > 100 µM
SR leukemia
  GI50: 29 µM
  TGI: 96.8 µM
HCC-2998 colon
  GI50: 14.3 µM
  TGI: 42.2 µM
SK-OV-3 ovarian
  GI50: 34.7 µM
  TGI: > 100 µM
OVCAR-5 ovarian
  GI50: 41.1 µM
  TGI: > 100 µM
SF-539 CNS
  GI50: 31.8 µM
  TGI: > 100 µM
EKVX NSCLC
  GI50: 27.7 µM
  TGI: > 100 µM
TK-10 renal
  GI50: 48 µM
  TGI: > 100 µM
PC-3 prostate
  GI50: 32.8 µM
  TGI: > 100 µM
SNB-19 CNS
  GI50: 27.1 µM
  TGI: 70.9 µM
SN12C renal
  GI50: 34.3 µM
  TGI: > 100 µM
SNB-75 CNS
  GI50: 6.77 µM
  TGI: > 100 µM
CCRF-CEM leukemia
  GI50: 34.1 µM
  TGI: > 100 µM
MDA-N
  GI50: 25.5 µM
  TGI: > 100 µM
UO-31 renal
  GI50: 21.4 µM
  TGI: 71 µM
MALME-3M melanoma
  GI50: > 100 µM
  TGI: > 100 µM
SK-MEL-2 melanoma
  GI50: 25.2 µM
  TGI: 66.9 µM
NCI-H23 lung
  GI50: 17.8 µM
  TGI: 60.5 µM
HL-60(TB) leukemia
  GI50: 29.3 µM
  TGI: 94.7 µM
MCF7 breast
  GI50: 20.5 µM
  TGI: 47.8 µM
OVCAR-8 ovarian
  GI50: > 100 µM
  TGI: > 100 µM
T-47D breast
  GI50: 45.2 µM
  TGI: > 100 µM
SF-295 CNS
  GI50: 43.8 µM
  TGI: > 100 µM
786-0 renal
  GI50: 2.75 µM
  TGI: 15 µM
HOP-92 NSCLC
  GI50: 37.7 µM
  TGI: > 100 µM
SK-MEL-28 melanoma
  GI50: 13.3 µM
  TGI: > 100 µM
K-562 leukemia
  GI50: 40.3 µM
  TGI: > 100 µM
ACHN renal
  GI50: 25.7 µM
  TGI: 92.8 µM
NCI-H226 lung
  GI50: 18.7 µM
  TGI: 44 µM
COLO 205 colon
  GI50: 17.5 µM
  TGI: 34.4 µM
SW-620 colon
  GI50: 30.9 µM
  TGI: > 100 µM
NCI-H522 lung
  GI50: 95.6 µM
  TGI: > 100 µM
HCT-15 colon
  GI50: 18.9 µM
  TGI: 46.2 µM
RXF 393 renal
  GI50: 4.42 µM
  TGI: 20.1 µM
KM12 colon
  GI50: 3.81 µM
  TGI: 20 µM
HCT-116 colon
  GI50: 35.5 µM
  TGI: > 100 µM
OVCAR-3 ovarian
  GI50: 22.3 µM
  TGI: 63.3 µM
HT29 colon
  GI50: 10.2 µM
  TGI: 40.8 µM
SF-268 CNS
  GI50: 10.9 µM
  TGI: > 100 µM
IGROV1 ovarian
  GI50: 37.2 µM
  TGI: > 100 µM
UACC-257 melanoma
  GI50: 6.74 µM
  TGI: > 100 µM
OVCAR-4 ovarian
  GI50: 4.17 µM
  TGI: > 100 µM
HS 578T breast
  GI50: 9.52 µM
  TGI: > 100 µM
A498 renal
  GI50: 24.4 µM
  TGI: 50.2 µM
CAKI-1 renal
  GI50: 31.7 µM
  TGI: 67.6 µM
SK-MEL-5 melanoma
  GI50: 6.3 µM
  TGI: 19.5 µM
MOLT-4 leukemia
  GI50: 27.1 µM
  TGI: 84.3 µM
A549 NSCLC
  GI50: 34.4 µM
  TGI: > 100 µM
MDA-MB-435
  GI50: 35.5 µM
  TGI: > 100 µM
DU-145 prostate
  GI50: 17.8 µM
  TGI: 39.2 µM
UACC-62 melanoma
  GI50: 16.3 µM
  TGI: 82.2 µM
U251 CNS
  GI50: 42.3 µM
  TGI: > 100 µM

## CC1C(=O)OC2CC[N+]3([O-])CC=C(COC(=O)C(C)(O)C1(C)O)C23 (configuration not stated)
HOP-62 NSCLC
  TGI: > 100 µM
NCI-H460 lung
  TGI: > 100 µM
MDA-MB-231 breast
  TGI: > 100 µM
M14 melanoma
  TGI: > 100 µM
NCI/ADR-RES ovarian
  TGI: > 100 µM
BT-549 breast
  TGI: > 100 µM
SR leukemia
  TGI: > 100 µM
HCC-2998 colon
  TGI: > 100 µM
SK-OV-3 ovarian
  TGI: > 100 µM
OVCAR-5 ovarian
  TGI: > 100 µM
SF-539 CNS
  TGI: > 100 µM
EKVX NSCLC
  TGI: > 100 µM
TK-10 renal
  TGI: > 100 µM
PC-3 prostate
  TGI: > 100 µM
LOX IMVI melanoma
  TGI: > 100 µM
SNB-19 CNS
  TGI: > 100 µM
SN12C renal
  TGI: > 100 µM
SNB-75 CNS
  TGI: > 100 µM
CCRF-CEM leukemia
  TGI: > 100 µM
MDA-N
  TGI: > 100 µM
MALME-3M melanoma
  TGI: > 100 µM
SK-MEL-2 melanoma
  TGI: > 100 µM
NCI-H23 lung
  TGI: > 100 µM
HL-60(TB) leukemia
  TGI: > 100 µM
MCF7 breast
  TGI: > 100 µM
OVCAR-8 ovarian
  TGI: > 100 µM
T-47D breast
  TGI: > 100 µM
SF-295 CNS
  TGI: > 100 µM
786-0 renal
  TGI: > 100 µM
HOP-92 NSCLC
  TGI: > 100 µM
SK-MEL-28 melanoma
  TGI: > 100 µM
K-562 leukemia
  TGI: > 100 µM
ACHN renal
  TGI: > 100 µM
NCI-H226 lung
  TGI: > 100 µM
COLO 205 colon
  TGI: > 100 µM
SW-620 colon
  TGI: > 100 µM
NCI-H522 lung
  TGI: > 100 µM
HCT-15 colon
  TGI: > 100 µM
RXF 393 renal
  TGI: > 100 µM
KM12 colon
  TGI: > 100 µM
HCT-116 colon
  TGI: > 100 µM
OVCAR-3 ovarian
  TGI: > 100 µM
HT29 colon
  TGI: > 100 µM
SF-268 CNS
  TGI: > 100 µM
IGROV1 ovarian
  TGI: > 100 µM
UACC-257 melanoma
  TGI: > 100 µM
OVCAR-4 ovarian
  TGI: > 100 µM
HS 578T breast
  TGI: > 100 µM
A498 renal
  TGI: > 100 µM
CAKI-1 renal
  TGI: > 100 µM
SK-MEL-5 melanoma
  TGI: > 100 µM
RPMI-8226 leukemia
  TGI: > 100 µM
MOLT-4 leukemia
  TGI: > 100 µM
A549 NSCLC
  TGI: > 100 µM
MDA-MB-435
  TGI: > 100 µM
DU-145 prostate
  TGI: > 100 µM
UACC-62 melanoma
  TGI: > 100 µM
U251 CNS
  TGI: > 100 µM
